target: T1, CXCR7 (Homo sapiens, UniProt P25106); experiment: PathHunter CHO-K1 CXCR7 b-arrestin recruitment assay (CXCR7 agonistic activity); type: cell-based; conditions: PathHunter CHO-K1 CXCR7 b-arrestin cell line
T1 construct: host or cells: CHO-K1 (PathHunter CHO-K1 CXCR7 b-arrestin cell line, stably transfected)
Outline: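 Stable CHO-K1 line with C-terminally ProLink-tagged CXCR7 and β-arrestin 2–EA fusion; β-arrestin recruitment restores β-gal activity, read by chemiluminescence after 1 h RT detection. Cells seeded 24 h, starved in OPTIMEM 3–4 h, exposed to compounds 90 min at 37 °C in HBSS/HEPES/BSA. Geometric-mean EC50 from repeated measurements.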

T1 sequence (P25106 whole entry): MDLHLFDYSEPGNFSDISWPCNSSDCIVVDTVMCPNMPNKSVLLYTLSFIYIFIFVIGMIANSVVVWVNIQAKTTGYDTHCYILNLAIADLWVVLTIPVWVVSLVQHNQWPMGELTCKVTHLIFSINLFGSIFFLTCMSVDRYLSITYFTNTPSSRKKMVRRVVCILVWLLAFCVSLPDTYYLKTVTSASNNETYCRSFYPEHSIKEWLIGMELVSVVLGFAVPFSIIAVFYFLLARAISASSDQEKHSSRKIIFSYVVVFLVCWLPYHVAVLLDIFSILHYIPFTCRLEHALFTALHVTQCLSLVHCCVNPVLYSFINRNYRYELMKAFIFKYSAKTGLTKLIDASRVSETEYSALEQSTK
T1 sequence (P32121 whole entry partner): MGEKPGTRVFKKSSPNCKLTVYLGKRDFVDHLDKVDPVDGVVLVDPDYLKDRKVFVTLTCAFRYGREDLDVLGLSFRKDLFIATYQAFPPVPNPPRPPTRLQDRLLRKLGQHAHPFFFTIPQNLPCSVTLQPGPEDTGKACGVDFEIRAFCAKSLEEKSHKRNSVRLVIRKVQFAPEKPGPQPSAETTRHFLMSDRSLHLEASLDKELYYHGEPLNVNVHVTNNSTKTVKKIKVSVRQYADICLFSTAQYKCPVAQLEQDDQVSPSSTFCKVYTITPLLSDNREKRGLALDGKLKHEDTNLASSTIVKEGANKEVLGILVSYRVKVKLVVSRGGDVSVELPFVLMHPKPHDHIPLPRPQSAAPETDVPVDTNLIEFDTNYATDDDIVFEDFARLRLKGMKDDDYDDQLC

Row | SMILES | EC50 [nM]
1 | O=C(CNc1cccc2c1CN(CC1CC1)CC2)N(CC(=O)N1CC(F)(F)C1)Cc1ccccc1C(F)(F)F [compound 482, 2-(2-Cyclopropylmethyl-1,2,3,4-tetrahydro-isoquinolin-8-ylamino)-N-[2-(3,3-difluoro-azetidin-1-yl)-2-oxo-ethyl]-N-(2-trifluoromethyl-benzyl)-acetamide] | 32
2 | O=C(CNc1cccc2c1CN(CC1CC1)CC2)N(CC(=O)N1CC(F)(F)C1)Cc1ncccc1C(F)(F)F [compound 483, 2-(2-Cyclopropylmethyl-1,2,3,4-tetrahydro-isoquinolin-8-ylamino)-N-[2-(3,3-difluoro-azetidin-1-yl)-2-oxo-ethyl]-N-(3-trifluoromethyl-pyridin-2-ylmethyl)-acetamide] | 33
3 | O=C(CNc1cccc2c1CN(CC1CC1)CC2)N(CCN1CC(F)(F)C1)Cc1ccccc1C(F)(F)F [compound 484] | 79
4 | CN(C)CCN(Cc1ncccc1Cl)C(=O)CNc1cccc2c1CN(CC1CC1)CC2 [compound 485, N-(3-Chloro-pyridin-2-ylmethyl)-2-(2-cyclopropylmethyl-1,2,3,4-tetrahydro-isoquinolin-8-ylamino)-N-(2-dimethylamino-ethyl)-acetamide] | 8
5 | CN(C)CCN(Cc1ncccc1Br)C(=O)CNc1cccc2c1CN(CC1CC1)CC2 [compound 486, N-(3-Bromo-pyridin-2-ylmethyl)-2-(2-cyclopropylmethyl-1,2,3,4-tetrahydro-isoquinolin-8-ylamino)-N-(2-dimethylamino-ethyl)-acetamide] | 5
6 | CC(C)(O)CN(Cc1ncccc1Cl)C(=O)CNc1cccc2c1CN(CC1CC1)CC2 [compound 487] | 100
7 | CC(C)(O)CN(Cc1ncccc1Br)C(=O)CNc1cccc2c1CN(CC1CC1)CC2 [compound 488] | 91
8 | CCN1CCc2cccc(NCC(=O)N(CCN3CCCC3)Cc3ccccc3C(F)(F)F)c2C1 [compound 489, 2-(2-Ethyl-1,2,3,4-tetrahydro-isoquinolin-8-ylamino)-N-(2-pyrrolidin-1-yl-ethyl)-N-(2-trifluoromethyl-benzyl)-acetamide] | 7
9 | CCN(CC)CCN(Cc1ccccc1)C(=O)CNc1cccc2c1CN(CC)CC2 [compound 490, N-Benzyl-N-(2-diethylamino-ethyl)-2-(2-ethyl-1,2,3,4-tetrahydro-isoquinolin-8-ylamino)-acetamide] | 21
10 | CCN1CCc2cccc(NCC(=O)N(Cc3ccccc3C(F)(F)F)C3CCN(C)CC3)c2C1 [compound 492, 2-(2-Ethyl-1,2,3,4-tetrahydro-isoquinolin-8-ylamino)-N-(1-methyl-piperidin-4-yl)-N-(2-trifluoromethyl-benzyl)-acetamide] | 41
11 | CCN1CCc2cccc(NCC(=O)N(CCN(C)C(=O)OC(C)(C)C)Cc3ccccc3)c2C1 [compound 493] | 249
12 | CCN1CCc2cccc(NCC(=O)N(CCN(C)C)Cc3ccc(C(F)(F)F)cc3)c2C1 [compound 506] | 155
13 | CCN1CCc2cccc(NCC(=O)N(CCN3CCCC3)Cc3ccccc3)c2C1 [compound 509, N-Benzyl-2-(2-ethyl-1,2,3,4-tetrahydro-isoquinolin-8-ylamino)-N-(2-pyrrolidin-1-yl-ethyl)-acetamide] | 36
14 | CCN1CCc2cccc(NCC(=O)N(CCN3CCOCC3)Cc3ccccc3C(F)(F)F)c2C1 [compound 510] | 109
15 | CCN1CCc2cccc(NCC(=O)N(CCC(C)C)Cc3ccccc3C(F)(F)F)c2C1 [compound 513] | 377
16 | CCN(CC)CCN(Cc1ccccc1C(F)(F)F)C(=O)CNc1cccc2c1CN(CC)CC2 [compound 514, N-(2-Diethylamino-ethyl)-2-(2-ethyl-1,2,3,4-tetrahydro-isoquinolin-8-ylamino)-N-(2-trifluoromethyl-benzyl)-acetamide] | 6

Row | SMILES | EC50 [nM]
17 | CCN1CCc2cccc(NCC(=O)N(CCN(C)C(=O)OC(C)(C)C)Cc3ccccc3C(F)(F)F)c2C1 [compound 515] | 382
18 | CCN1CCc2cccc(NCC(=O)N(CCC#N)Cc3ccccc3C(F)(F)F)c2C1 [compound 516] | 181
19 | CCN1CCc2cccc(NCC(=O)N(CCN3CCCC3=O)Cc3ccccc3C(F)(F)F)c2C1 [compound 517] | 302
20 | CCN1CCc2cccc(NCC(=O)N(Cc3ccccc3C(F)(F)F)C3CCOCC3)c2C1 [compound 519] | 250
21 | CCN1CCc2cccc(NCC(=O)N(Cc3nc(C)cs3)Cc3ccccc3C(F)(F)F)c2C1 [compound 520] | 188
22 | CCN1CCc2cccc(NCC(=O)N(CCN(C)C)Cc3ccc(F)cc3C(F)(F)F)c2C1 [compound 523] | 58
23 | CCN1CCc2cccc(NCC(=O)N(CCN(C)C)Cc3ncccc3C)c2C1 [compound 525, N-(2-Dimethylamino-ethyl)-2-(2-ethyl-1,2,3,4-tetrahydro-isoquinolin-8-ylamino)-N-(3-methyl-pyridin-2-ylmethyl)-acetamide] | 41
24 | CCN1CCc2cccc(NCC(=O)N(CCN(C)C)Cc3ccc(C)cn3)c2C1 [compound 527] | 162
25 | CCN1CCc2cccc(NCC(=O)N(CCN(C)C)Cc3ncccc3F)c2C1 [compound 528, N-(2-Dimethylamino-ethyl)-2-(2-ethyl-1,2,3,4-tetrahydro-isoquinolin-8-ylamino)-N-(3-fluoro-pyridin-2-ylmethyl)-acetamide] | 42
26 | CCN1CCc2cccc(NCC(=O)N(CCN(C)C)Cc3ccc(F)cn3)c2C1 [compound 529] | 174
27 | CCN1CCc2cccc(NCC(=O)N(CCN(C)C)Cc3ncccc3C(F)(F)F)c2C1 [compound 531, N-(2-Dimethylamino-ethyl)-2-(2-ethyl-1,2,3,4-tetrahydro-isoquinolin-8-ylamino)-N-(3-trifluoromethyl-pyridin-2-ylmethyl)-acetamide] | 6
28 | CCN1CCc2cccc(NCC(=O)N(CCN(C)C)Cc3cccc(C(F)(F)F)n3)c2C1 [compound 532, N-(2-Dimethylamino-ethyl)-2-(2-ethyl-1,2,3,4-tetrahydro-isoquinolin-8-ylamino)-N-(6-trifluoromethyl-pyridin-2-ylmethyl)-acetamide] | 30
29 | CCN1CCc2cccc(NCC(=O)N(CCN(C)C)Cc3cnc(N(C)C)nc3)c2C1 [compound 534] | 395
30 | CCN1CCc2cccc(NCC(=O)N(CCN(C)C)Cc3cc(C)on3)c2C1 [compound 535] | 355
31 | CCN1CCc2cccc(NCC(=O)N(CCN(C)C)Cc3nc(C)cs3)c2C1 [compound 536] | 92

Further lines, results first:

Row | EC50 [nM] | SMILES
32 | 21 | CCN1CCc2cccc(NCC(=O)N(CCN(C)C)Cc3ccccc3F)c2C1 [compound 491, N-(2-Dimethylamino-ethyl)-2-(2-ethyl-1,2,3,4-tetrahydro-isoquinolin-8-ylamino)-N-(2-fluoro-benzyl)-acetamide]
33 | 28 | CCN1CCc2cccc(NCC(=O)N(CCN(C)C)Cc3ccccc3C)c2C1 [compound 494, N-(2-Dimethylamino-ethyl)-2-(2-ethyl-1,2,3,4-tetrahydro-isoquinolin-8-ylamino)-N-(2-methyl-benzyl)-acetamide]
34 | 63 | CCN1CCc2cccc(NCC(=O)N(CCN(C)C)Cc3cccc(C)c3)c2C1 [compound 495]
35 | 79 | CCN1CCc2cccc(NCC(=O)N(CCN(C)C)Cc3ccc(C)cc3)c2C1 [compound 496]
36 | 77 | CCN1CCc2cccc(NCC(=O)N(CCN(C)C)Cc3ccccc3OC)c2C1 [compound 497]
37 | 118 | CCN1CCc2cccc(NCC(=O)N(CCN(C)C)Cc3cccc(OC)c3)c2C1 [compound 498]
38 | 245 | CCN1CCc2cccc(NCC(=O)N(CCN(C)C)Cc3ccc(OC)cc3)c2C1 [compound 499]
39 | 31 | CCN1CCc2cccc(NCC(=O)N(CCN(C)C)Cc3ccccc3Cl)c2C1 [compound 500, N-(2-Chloro-benzyl)-N-(2-dimethylamino-ethyl)-2-(2-ethyl-1,2,3,4-tetrahydro-isoquinolin-8-ylamino)-acetamide]
40 | 54 | CCN1CCc2cccc(NCC(=O)N(CCN(C)C)Cc3cccc(Cl)c3)c2C1 [compound 501]
41 | 113 | CCN1CCc2cccc(NCC(=O)N(CCN(C)C)Cc3ccc(Cl)cc3)c2C1 [compound 502]
42 | 65 | CCN1CCc2cccc(NCC(=O)N(CCN(C)C)Cc3cccc(F)c3)c2C1 [compound 503]
43 | 93 | CCN1CCc2cccc(NCC(=O)N(CCN(C)C)Cc3ccc(F)cc3)c2C1 [compound 504]
44 | 42 | CCN1CCc2cccc(NCC(=O)N(CCN(C)C)Cc3cccc(C(F)(F)F)c3)c2C1 [compound 505, N-(2-Dimethylamino-ethyl)-2-(2-ethyl-1,2,3,4-tetrahydro-isoquinolin-8-ylamino)-N-(3-trifluoromethyl-benzyl)-acetamide]
45 | 74 | CCN1CCc2cccc(NCC(=O)N(CCCN(C)C)Cc3ccccc3)c2C1 [compound 507]
46 | 29 | CCN1CCc2cccc(NCC(=O)N(CCN(C)C)Cc3ncccc3Cl)c2C1 [compound 511, N-(3-Chloro-pyridin-2-ylmethyl)-N-(2-dimethylamino-ethyl)-2-(2-ethyl-1,2,3,4-tetrahydro-isoquinolin-8-ylamino)-acetamide]
47 | 27 | CCN1CCc2cccc(NCC(=O)N(CCN(C)C)Cc3c(F)cccc3F)c2C1 [compound 524, N-(2,6-Difluoro-benzyl)-N-(2-dimethylamino-ethyl)-2-(2-ethyl-1,2,3,4-tetrahydro-isoquinolin-8-ylamino)-acetamide]
48 | 44 | CCN1CCc2cccc(NCC(=O)N(CCN(C)C)Cc3cccc(C)n3)c2C1 [compound 526, N-(2-Dimethylamino-ethyl)-2-(2-ethyl-1,2,3,4-tetrahydro-isoquinolin-8-ylamino)-N-(6-methyl-pyridin-2-ylmethyl)-acetamide]
49 | 174 | CCN1CCc2cccc(NCC(=O)N(CCN(C)C)Cc3ccc(Cl)cn3)c2C1 [compound 530]
50 | 359 | CCN1CCc2cccc(NCC(=O)N(CCN(C)C)Cc3cncc(Cl)c3)c2C1 [compound 533]
